# Columns and labels:
# COVID-19 infection = experiment: Pilot / compassionate use study of opaganib in hospitalized patients with COVID-19 pneumonia; format: in vivo, human
# Method: Patients entered a screening period of up to 1 week. Eligible patients entered the treatment period for up to 2 weeks. All participants were followed for 2 weeks after their last dose of study drug, at the end of the 2 week treatment period, or once they had 2 consecutive daily negative viral swabs for the COVID-19 virus or at after premature drug discontinuation prior to Day 14. The maximum duration of study participation was 35 days […].
# Each dose is administered with food or 15-30 minutes after tube-feeding, where appropriate. […] These patients had moderate to severe COVID-19-related pneumonia with hypoxia on supplemental oxygen.
# Five patients were included in the analysis, and for comparison purposes, we used a control group with same-sex, same-severity patients (baseline characteristics). Univariate comparisons between the groups were performed with chi-square test for categorical variables and t-test or MannWhitney U-test for continuous variables, as appropriate. Time variables were compared with Cox proportional hazard regression, adjusted for age and background illnesses. CRP and lymphocyte changes were compared utilizing a repeated measures general linear model with a Bonferroni correction for multiple comparison.
# [1] = system: human bronchial epithelial cells (HBEC); settings: male
# COVID-19 pneumonia = experiment: Randomized, double-blind, placebo-controlled Phase 2a study of opaganib in COVID-19 pneumonia; format: in vivo, human
# Excerpt: This was a phase 2a, proof of concept, multi-center randomized double-blind, parallel arm, placebo-controlled study. After informed consent was obtained, patients entered a screening phase for no more than 3 days, to determine eligibility. […] Treatment assignments remained blinded to the patient, investigator and hospital staff, as well as the sponsor. As there was no consensus for a definitive treatment specifically targeting the SARS-CoV-2 virus causing COVID-19 (Wilson, 2020), standard of care referred to regional, institutional or physician directed therapies, that were implemented during the COVID-19 pandemic.
# Study drug was to be administered every day for 14 days (Day 1 to Day 14), unless the patient had been discharged from the hospital without requiring supplemental oxygen, in which case study drug would only be administered to Day 10.
# Two patients were randomized in each group but not treated. […] Two patients in the opaganib arm experienced adverse events such that study drug was terminated, while one placebo patient was terminated due to an adverse event.
# The primary efficacy endpoint calculated for each patient the area under the curve of the supplemental oxygen requirement through day 14, using the trapezoidal rule after subtracting the baseline oxygen requirement at each day. Days where no supplementary oxygen was needed, were recorded as 0. If several values of oxygen requirement (L/min) are recorded in a certain day, for the primary analysis the highest of these values were taken. In the primary analysis, for patients who die before Day 14, or require intubation and mechanical ventilation, missing daily values were assigned the maximal supplemental oxygen flow requirement of 8 L/min. […]
# Supplemental oxygen requirement up to Day 14 was collected even if a patient discontinued treatment prior to Day 14 but continued in the study to Day 14. […] A sensitivity analysis to the above missing data handling approach was performed using an AUC summary statistics approach, in which groups AUC is calculated from the estimated parameters of a Repeated-Measures model. […]
# [2] = system: SARS-CoV-2 clinical isolate (2019-nCoV/USA-WA1/2020); experiment: Anti-viral activity against SARS-CoV-2 in HBEC (EpiAirway) ALI cultures, apical viral titer by TCID50 assay; format: cell-based
# ARDS induced thrombosis = experiment: Rat venous stasis (Wessler) model after LPS-induced lung injury (ARDS); format: in vivo, Sprague-Dawley rats
# Excerpt: This study assessed the efficacy of ABC294640 to reduce the incidence of adverse thromboembolic events in situ in acute respiratory distress syndrome (ARDS) conditions using a rat venous stasis model. This assay is designed to measure thrombotic risks following LPS-induced lung injury. LPS-induced lung injury is one of the most commonly used rodent models for ARDS and was described to mimic the neutrophilic inflammatory response observed in ARDS patients. The mechanism of LPS-induced ARDS is based on damage to endothelial cells and a systemic inflammatory response.
# The venous stasis (Wessler) test in animals has been used extensively for over 40 years as a laboratory measure for in vivo hypercoagulability.
# Test compound was administered by oral gavage 3 hours post-instillation and 24, 48 and 72 hours post-instillation, at a dose of 250 mg/kg. The appropriate amount of LPS from E. coli (O55:B5) was diluted in saline to obtain a final concentration of 400 μg/mL. This solution was given by intratracheal instillation (0.5 mL/kg). The vehicle was composed of PBS pH 7.4±0.1. ABC294640 was weighed and transferred in vehicle (PBS, 0.375%, pH 7.4) to obtain a final solution at 25 mg/mL. ABC294640 solution is stirred for 10 minutes at room temperature prior to dosing. This solution was given by oral gavage (250 mg/kg, 10 mL/kg).
# Sprague-Dawley rats (male) weighing between 275 and 400 g were used for this study. Animals were randomly assigned to a treatment group by the Study Director. Food and water were given ad libitum. Observation for behavior and general health status were done until the sacrifice. The body weight was recorded before the instillation and 24, 48 and 72 hours post-instillation.
# In this study, ARDS was induced by intratracheal instillation of LPS. Throughout the ARDS induction and development process, animal was dosed by oral gavage with vehicle or ABC294640 (3 h, 24 h, 48 and 72 hours post-instillation). […] The stasis was maintained for 30 minutes. The segment was then excised and its content scored. Subsequently, animal was euthanized by exsanguination.
# • 1. Prior LPS or saline instillation, the functional respiratory parameters of all rat was assessed by whole-body plethysmography and SpO2 was evaluated on conscious rat with a collar probe pulse oximeter. Rat was first acclimatized to the plethysmograph chamber prior to the physiological assessment. The respiratory rate, the Penh and the inspiratory/expiratory time measurements was analyzed. • 2. […]
# • 5. Rats were evaluated periodically to ensure animal well-being (general behavior and daily body weight). • 6. […] SpO2 and whole-body plethysmography were also evaluated 24, 48 and 72 hours post-instillation. • 8. […] The thrombi was measured, weighed and scored on a scale from 0 to 4 (see Table 2).
compound,measurement,setting,value
"Cl.O=C(NCc1ccncc1)C12CC3CC(C1)CC(c1ccc(Cl)cc1)(C3)C2 [opaganib, 3-(4-chlorophenyl)-adamantane-1-carboxylic acid (pyridin-4-ylmethyl) amide, hydrochloride salt]",Clinical Assessment,"COVID-19 infection; Patient 1 (14 d), started as severe on maximal OptiFlow 3 Apr. 2020, one negative viral swab as of 22 April",3 Apr. 2020; RA by 16 April.
same,Clinical Assessment,"COVID-19 infection; Patient 2 (14 d), started as severe+, planning for intubation 7 Apr. 2020, RA by 20 Apr. 2020, D/C on 22 Apr. 2020",7 Apr. 2020; RA by 20
same,Clinical Assessment,"COVID-19 infection; Patient 3 (7 d), moderate-severe, on OptiFlow 13 Apr. 2020, RA by 17 Apr. 2020, D/C on 19 Apr. 2020",13 Apr. 2020; RA by
same,Clinical Assessment,"COVID-19 infection; Patient 4 (11 d), started severe+ 70% OptiFlow on 13 Apr. 2020",RA on 22 Apr. 2020
same,Clinical Assessment,"COVID-19 infection; Patient 5 (2 d), started moderate on 13 Apr. 2020, nasal cannula, after one day on opaganib, D/C on 14 Apr. 2020 on RA",Dramatic improvement
same,C-Reactive Protein (CRP) change,COVID-19 infection; all six patients,reduction in C-Reactive Protein (CRP)
same,"clinical improvement, including reduced supplemental oxygenation and higher lymphocyte counts",COVID-19 infection; all six patients,measurable clinical improvement
same,cases requiring mechanical ventilation,COVID-19 infection; compared with 33% of controls,none of the cases required mechanical ventilation
same,lymphocyte count increase vs. matched controls,"COVID-19 infection; five patients vs same-sex, same-severity control group",significantly faster increase in lymphocyte count
same,patients back to breathing room air,COVID-19 infection; of 6 treated patients,5 patients
same,patients discharged from hospital,COVID-19 infection; of 6 treated patients,3 patients
same,moderate to-severe patients improved significantly,"COVID-19 infection; of seven compassionate use patients, patient #7 had only 1 day of treatment",6 patients
same,50% cytotoxicity reached in concentration range tested,[1],neither 50% inhibition nor 50% cytotoxicity were reached
same,patients with adverse events such that study drug was terminated,"COVID-19 pneumonia; opaganib arm, one placebo patient",Two
same,patients with serious adverse events (SAEs) vs. placebo arm,COVID-19 pneumonia; top-line results,fewer patients suffered from serious adverse events (SAEs)
same,safety vs. placebo arm,COVID-19 pneumonia; top-line results,"safe, with no material safety differences"
same,50% inhibition reached in concentration range tested,[2]; 0.05 to 11.25 μg/ml,neither 50% inhibition nor 50% cytotoxicity were reached
same,concentration at which complete inhibition of infectious virus production starts,[2]; 3 days incubation,1 µg/mL
same,infectious virus production,"[2]; opaganib 0.05 to 11.25 μg/ml, 3 days incubation",dose-dependent reduction in infectious virus production
"O=C(NCc1ccncc1)C12CC3CC(C1)CC(c1ccc(Cl)cc1)(C3)C2 [ABC294640, 3-(4-chlorophenyl)-adamantane-1-carboxylic acid (pyridin-4-ylmethyl)amide]",blood clot length,ARDS induced thrombosis; 250 mg/kg oral gavage,reduction
same,blood clot weight,ARDS induced thrombosis; 250 mg/kg oral gavage,reduction
same,thrombosis,"ARDS induced thrombosis; 250 mg/kg oral gavage 3, 24, 48, 72 h post LPS instillation, 30 min stasis",reduction of thrombosis
same,total thrombus score,"ARDS induced thrombosis; 250 mg/kg oral gavage, score 0 to 4",reduction

# From patent US12551469B2 (priority 2020, dated 2026)
